Values of other authors in paper PMC6952392, “A combined computational and experimental strategy identifies mutations conferring resistance to drugs targeting the BCR-ABL fusion protein” (Communications Biology, 2020).
Where two headings read alike, the source gives them in different places.

Legend:
[1] = safety window

Cc1ccc(C(=O)Nc2ccc(CN3CCN(C)CC3)c(C(F)(F)F)c2)cc1C#Cc1cnc2cccnn12 [ponatinib]
in vitro inhibitory activity (BCR-ABL; general statement, no reference given): sub-nanomolar range

Cc1cn(-c2cc(NC(=O)c3ccc(C)c(Nc4nccc(-c5cccnc5)n4)c3)cc(C(F)(F)F)c2)cn1 [nilotinib]
effective safe plasma concentration [1]: < 1500 ng/mL

COc1cc(Nc2c(C#N)cnc3cc(OCCCN4CCN(C)CC4)c(OC)cc23)c(Cl)cc1Cl [bosutinib]
in vitro inhibitory activity (BCR-ABL): sub-nanomolar range
